Laboratory results reported in ChEMBL document CHEMBL1201862, “PubChem BioAssay data set” (2004).
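All cell lines were grown in 96-well plates and treated with compound for 48 hours. GI50 is the concentration that inhibits growth by half.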 Activity calls are given as the source filed them. Rule as the data show it: active = GI50 up to about 1.1 µM and inactive = higher.

Experiments:
Assay in all cases: inhibition of tumour cell growth, NCI panel, 48 h
ACHN = system: ACHN
NCI-H23 = system: NCI-H23
HOP-62 = system: HOP-62
Malme-3M = system: Malme-3M
786-0 = system: 786-0
CCRF-CEM = system: CCRF-CEM
UO-31 = system: UO-31
SK-OV-3 = system: SK-OV-3
LXFL 529 = system: LXFL 529
UACC-62 = system: UACC-62
HCC 2998 = system: HCC 2998
LOX IMVI = system: LOX IMVI
SK-MEL-5 = system: SK-MEL-5
SN12C = system: SN12C
SF-295 = system: SF-295
U-251 = system: U-251
SNB-75 = system: SNB-75
OVCAR-4 = system: OVCAR-4
NCI-H226 = system: NCI-H226

Measured: GI50

Nc1nc(N)c(N=O)c(Nc2ccc(I)cc2)n1
inactive: ACHN 24 µM | NCI-H23 18.2 µM | HOP-62 16.6 µM | Malme-3M 19.2 µM | 786-0 25.5 µM | CCRF-CEM 13.8 µM | UO-31 18 µM | SK-OV-3 5.33 µM | LXFL 529 9.93 µM | UACC-62 7.78 µM | HCC 2998 27.5 µM | LOX IMVI 9.12 µM | SK-MEL-5 13.5 µM | SN12C 10.6 µM | SF-295 28.6 µM | U-251 25.3 µM

Cc1ccc(NC(=O)c2nc(S)nc(N)c2-c2ccccc2C)cc1C
inactive: SNB-75 > 100 µM | OVCAR-4 > 10 µM | ACHN > 100 µM | NCI-H23 > 100 µM | Malme-3M > 100 µM | 786-0 > 100 µM | CCRF-CEM > 100 µM | UO-31 > 100 µM | SK-OV-3 > 100 µM | LXFL 529 > 100 µM | UACC-62 > 100 µM | LOX IMVI > 100 µM | SK-MEL-5 > 100 µM | SN12C > 100 µM | NCI-H226 > 100 µM | U-251 > 100 µM

Cn1c(=O)c(C2c3ccccc3Oc3c2c(=O)n(C)c2ccccc32)c(O)c2ccccc21 (stereo unspecified)
inactive: SNB-75 40.9 µM | OVCAR-4 86.7 µM | ACHN 39.8 µM | NCI-H23 40.6 µM | HOP-62 > 100 µM | Malme-3M 73.5 µM | 786-0 27.2 µM | UO-31 73.5 µM | SK-OV-3 63.8 µM | LXFL 529 47.9 µM | UACC-62 44.9 µM | HCC 2998 44.3 µM | LOX IMVI 37.9 µM | SK-MEL-5 > 100 µM | SN12C 46.7 µM | NCI-H226 46 µM | SF-295 54.5 µM | U-251 41.2 µM

Cc1nc(=O)n2c(C)n[nH]c2c1C(=O)Nc1cc(Cl)cc(Cl)c1
inactive: SNB-75 37.2 µM | OVCAR-4 29.2 µM | ACHN 20 µM | NCI-H23 24.6 µM | HOP-62 25.6 µM | Malme-3M 30.9 µM | 786-0 28.4 µM | CCRF-CEM 20.2 µM | UO-31 20.4 µM | SK-OV-3 29 µM | LXFL 529 29.8 µM | UACC-62 16.2 µM | LOX IMVI 36.2 µM | SK-MEL-5 16.1 µM | SN12C 15.9 µM | NCI-H226 24.8 µM | SF-295 31.4 µM | U-251 21.1 µM

O=C(CC(=O)N1N=C(n2ccc3ccccc32)CC1c1ccccc1)Nc1ccc(Cl)cc1 (stereo unspecified)
inactive: SNB-75 59.7 µM | OVCAR-4 > 100 µM | ACHN > 100 µM | NCI-H23 > 100 µM | HOP-62 > 100 µM | Malme-3M > 100 µM | 786-0 > 100 µM | CCRF-CEM > 100 µM | UO-31 > 100 µM | SK-OV-3 > 100 µM | LXFL 529 > 100 µM | UACC-62 > 100 µM | HCC 2998 > 100 µM | LOX IMVI > 100 µM | SN12C > 100 µM | SF-295 > 100 µM | U-251 > 100 µM

c1ccc2c(c1)CCc1c(-c3ccncc3)n[nH]c1-2
inactive: SNB-75 26.3 µM | ACHN 26.5 µM | NCI-H23 19.4 µM | HOP-62 28.4 µM | Malme-3M 33.5 µM | 786-0 37.8 µM | CCRF-CEM 14.2 µM | SK-OV-3 33.4 µM | LXFL 529 23.7 µM | UACC-62 16.4 µM | HCC 2998 33.1 µM | LOX IMVI 23.3 µM | SK-MEL-5 18 µM | SN12C 43.5 µM | NCI-H226 23 µM | SF-295 45.7 µM | U-251 13.6 µM

NC(CCSCC(F)(F)F)C(=O)O (stereo unspecified)
inactive: SNB-75 > 100 µM | OVCAR-4 > 100 µM | ACHN > 100 µM | NCI-H23 > 100 µM | HOP-62 > 100 µM | Malme-3M > 100 µM | 786-0 > 100 µM | CCRF-CEM > 100 µM | UO-31 > 100 µM | LXFL 529 > 100 µM | UACC-62 > 100 µM | HCC 2998 > 100 µM | LOX IMVI > 100 µM | SK-MEL-5 > 100 µM | SN12C > 100 µM | NCI-H226 > 100 µM | SF-295 > 100 µM | U-251 > 100 µM

OCCC1(O)CCC(O)CC1 (stereo unspecified)
inactive: SNB-75 75.7 µM | OVCAR-4 > 100 µM | NCI-H23 > 100 µM | HOP-62 > 100 µM | Malme-3M > 100 µM | 786-0 > 100 µM | CCRF-CEM > 100 µM | UO-31 > 100 µM | SK-OV-3 > 100 µM | LXFL 529 > 100 µM | UACC-62 > 100 µM | HCC 2998 > 100 µM | LOX IMVI > 100 µM | SK-MEL-5 > 100 µM | NCI-H226 > 100 µM | SF-295 > 100 µM | U-251 > 100 µM

CC(O)(c1ccc(OCCC[N+](C)(C)C)cc1)C(C)(O)c1ccc(OCCC[N+](C)(C)C)cc1 (stereo unspecified)
inactive: SNB-75 > 100 µM | OVCAR-4 > 100 µM | ACHN > 100 µM | NCI-H23 > 100 µM | HOP-62 > 100 µM | Malme-3M > 100 µM | 786-0 > 100 µM | CCRF-CEM > 100 µM | UO-31 > 100 µM | SK-OV-3 > 100 µM | LXFL 529 > 100 µM | UACC-62 > 100 µM | HCC 2998 > 100 µM | LOX IMVI > 100 µM | SN12C > 100 µM | NCI-H226 > 100 µM | SF-295 > 100 µM | U-251 > 100 µM

CC(C)(C)c1cc(CCC(=O)Nc2ccc(Cl)cc2Cl)nc(N)n1
inactive: OVCAR-4 > 100 µM | ACHN > 100 µM | NCI-H23 > 100 µM | HOP-62 > 100 µM | Malme-3M > 100 µM | 786-0 > 100 µM | CCRF-CEM > 100 µM | UO-31 > 100 µM | SK-OV-3 > 100 µM | LXFL 529 > 100 µM | UACC-62 > 100 µM | HCC 2998 > 100 µM | LOX IMVI > 100 µM | SK-MEL-5 > 100 µM | SN12C > 100 µM | NCI-H226 > 100 µM | SF-295 > 100 µM | U-251 > 100 µM

COc1cc(C2Oc3cc(-c4oc5cc(O)cc(O)c5c(=O)c4O)ccc3OC2CO)ccc1O (stereo unspecified) [DEHYDROSILYLBIN]
inactive: SNB-75 5 µM | OVCAR-4 20.7 µM | ACHN 7.64 µM | NCI-H23 4.3 µM | HOP-62 11.2 µM | Malme-3M 22.8 µM | 786-0 8.55 µM | CCRF-CEM 5.77 µM | UO-31 2.64 µM | SK-OV-3 21.4 µM | LXFL 529 5.26 µM | UACC-62 3.42 µM | HCC 2998 24.8 µM | SK-MEL-5 15.4 µM | SN12C 10.8 µM | NCI-H226 8.51 µM | SF-295 10.7 µM | U-251 6.68 µM
